Values after ≈ are worked out from the molar mass of the structure shown.
Key:
Test in all cases: CLSI broth dilution MIC determination
Type in all cases: cell-based
[1] = test system: S. pyogenes ATCC 19615; conditions: S. pyogenes ATCC 19615; Gram-positive
[2] = test system: P. aeruginosa ATCC 27853; conditions: P. aeruginosa ATCC 27853; Gram-negative
[3] = test system: A. baumannii IMP-4; conditions: Gram-negative
[4] = test system: A. baumannii imipenem-resistant; conditions: Gram-negative
[5] = test system: S. aureus USA600, GISA; conditions: S. aureus USA600, GISA; Gram-positive
Summary of the method: (§1)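 CLSI broth-dilution MIC. Controls: azithromycin, solithromycin (many cases). Macrolide-resistance genotypes constitutive or inducible.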

[6] = test system: S. pneumoniae ATCC 49619; conditions: S. pneumoniae ATCC 49619; Gram-positive
Summary of the method: as §1

[7] = test system: H. influenzae ATCC49247; conditions: Gram-negative
Summary of the method: as §1

[8] = test system: S. aureus MRSA: USA300; conditions: S. aureus MRSA: USA300; Gram-positive
Summary of the method: as §1

[9] = test system: E. coli ATCC 25922; conditions: E. coli ATCC 25922; Gram-negative
Summary of the method: as §1

[10] = test system: S. aureus erm A genotype; conditions: S. aureus erm A genotype; Gram-positive
Summary of the method: as §1

[11] = test system: S. pneumoniae mef A genotype (second strain so labelled); conditions: Gram-positive
Summary of the method: as §1

[12] = test system: S. aureus ATCC 29213; conditions: S. aureus ATCC 29213; Gram-positive
Summary of the method: as §1

[13] = test system: E. coli CTX-M-14; conditions: Gram-negative
Summary of the method: as §1

[14] = test system: S. pneumoniae erm B + mef A genotype; conditions: S. pneumoniae erm B + mef A genotype; Gram-positive
Summary of the method: as §1

[15] = test system: K. pneumoniae TEM-10; conditions: Gram-negative
[16] = test system: E. coli TEM-1; conditions: E. coli TEM-1; Gram-negative
Summary of the method: as §1

[17] = test system: S. aureus MRSA: USA100; conditions: S. aureus MRSA: USA100; Gram-positive
Summary of the method: as §1

[18] = test system: E. coli NDM-1; conditions: Gram-negative
Summary of the method: as §1

[19] = test system: K. pneumoniae SHV-12; conditions: Gram-negative
[20] = test system: A. baumannii ATCC 19606; conditions: A. baumannii ATCC 19606; Gram-negative
[21] = test system: E. faecalis ATCC 29212; conditions: E. faecalis ATCC 29212; Gram-positive
[22] = test system: A. baumannii chromosomal class C; conditions: Gram-negative
[23] = test system: K. pneumoniae KPC-2; conditions: Gram-negative
[24] = test system: P. aeruginosa HPA101-1477; conditions: Gram-negative
[25] = test system: H. influenzae Erythro >4, Azithro 1; conditions: H. influenzae Erythro >4, Azithro 1; Gram-negative
Description: MIC data was collected for the novel macrolides that this platform has produced against over 21 unique strains of B. subtilis, E. coli, S. aureus, S. pneumoniae, and H. influenzae, including several multidrug-resistant strains, with a special focus on macrolide resistant mechanisms (vide supra). […] CLSI standard procedures for broth dilution MIC determination were used. […] These genotypes can be constitutive or inducible.

[26] = test system: E. faecalis Vancomycin-resistant; conditions: E. faecalis Vancomycin-resistant; Gram-positive
[27] = test system: K. pneumoniae ATCC 10031; conditions: K. pneumoniae ATCC 10031; Gram-negative
[28] = test system: S. pyogenes Macrolide-resistant; conditions: S. pyogenes Macrolide-resistant; Gram-positive

| Compound | MIC [1] [µg/mL] | MIC [2] [µg/mL] | MIC [3] [µg/mL] | MIC [4] [µg/mL] | MIC [5] [µg/mL] | MIC [6] [µg/mL] | MIC [7] [µg/mL] | MIC [8] [µg/mL] | MIC [9] [µg/mL] | MIC [10] [µg/mL] | MIC [11] [µg/mL] | MIC [12] [µg/mL] | MIC [13] [µg/mL] | MIC [14] [µg/mL] | MIC [15] [µg/mL] | MIC [16] [µg/mL] | MIC [17] [µg/mL] | MIC [18] [µg/mL] | MIC [19] [µg/mL] | MIC [20] [µg/mL] | other results |
| --- | --- | --- | --- | --- | --- | --- | --- | --- | --- | --- | --- | --- | --- | --- | --- | --- | --- | --- | --- | --- | --- |
| CC[C@H]1OC(=O)[C@H](C)C(=O)[C@H](C)[C@@H](O[C@@H]2OC(C)CC(N(C)C)C2O)[C@](C)(OC)C[C@@H](C)C(=O)[C@H](C)[C@H]2N(C/C=C/Cn3nnc(-c4ccccn4)n3)C(=O)O[C@]12C (some centres unmarked) [FSM-100371] | < 0.0312 | > 32 | > 32 | > 32 | > 32 | < 0.0312 | 2 (≈ 2.46 µM) | 4 (≈ 4.93 µM) | > 32 | > 32 | 0.125 (≈ 0.154 µM) | < 0.0312 | > 32 | 0.25 | > 32 | > 32 | > 32 | > 32 | > 32 | 16 (≈ 19.7 µM) | MIC [21]: < 0.0312 µg/mL; MIC [22]: 32 µg/mL (≈ 39.4 µM); MIC [23]: > 32 µg/mL; MIC [24]: > 32 µg/mL; MIC [25]: 2 µg/mL (≈ 2.46 µM); MIC [26]: > 32 µg/mL; MIC [27]: 8 µg/mL (≈ 9.85 µM); MIC [28]: 0.0625 µg/mL (≈ 0.077 µM) |
| CC[C@H]1OC(=O)[C@@](C)(F)C(=O)[C@H](C)[C@@H](O[C@@H]2OC(C)CC(N(C)C)C2O)[C@](C)(OC)C[C@@H](C)C(=O)[C@H](C)[C@H]2N(C/C=C/Cn3nnc(-c4ccccn4)n3)C(=O)O[C@]12C (some centres unmarked) [FSM-100389] | < 0.0312 | > 32 | > 32 | 16 (≈ 19.3 µM) | > 32 | < 0.0312 | 1 (≈ 1.2 µM) | 2 (≈ 2.41 µM) | 32 (≈ 38.6 µM) | > 32 | < 0.0312 | < 0.0312 | > 32 | 0.0625 | > 32 | 32 (≈ 38.6 µM) | > 32 | > 32 | > 32 | 16 (≈ 19.3 µM) | MIC [21]: < 0.0312 µg/mL; MIC [22]: 32 µg/mL (≈ 38.6 µM); MIC [23]: > 32 µg/mL; MIC [24]: > 32 µg/mL; MIC [25]: 1 µg/mL (≈ 1.2 µM); MIC [26]: > 32 µg/mL; MIC [27]: 4 µg/mL (≈ 4.82 µM); MIC [28]: < 0.0312 µg/mL |
| CC[C@H]1OC(=O)[C@H](C)C(=O)[C@H](C)[C@@H](O[C@@H]2OC(C)CC(N(C)C)C2O)[C@](C)(OC)C[C@@H](C)C(=O)[C@H](C)[C@H]2N(CC#CCn3cc(-c4cccc(N)c4)nn3)C(=O)O[C@]12C (some centres unmarked) [FSM-100239] | ≤ 0.0312 | > 32 | > 32 | 4 (≈ 4.86 µM) | > 32 | ≤ 0.0312 | 1 (≈ 1.22 µM) | 0.25 (≈ 0.304 µM) | 16 (≈ 19.4 µM) | > 32 | ≤ 0.0312 | ≤ 0.0312 | > 32 | 0.0625 | 32 (≈ 38.9 µM) | 16 (≈ 19.4 µM) | > 32 | > 32 | > 32 | 8 (≈ 9.72 µM) | MIC [21]: ≤ 0.0312 µg/mL; MIC [22]: 2 µg/mL (≈ 2.43 µM); MIC [23]: > 32 µg/mL; MIC [24]: > 32 µg/mL; MIC [25]: 1 µg/mL (≈ 1.22 µM); MIC [26]: 16 µg/mL (≈ 19.4 µM); MIC [27]: 4 µg/mL (≈ 4.86 µM); MIC [28]: ≤ 0.0312 µg/mL |
| CC[C@H]1OC(=O)[C@@](C)(F)C(=O)[C@H](C)[C@@H](O[C@@H]2OC(C)CC(N(C)C)C2O)[C@](C)(OC)C[C@@H](C)C(=O)[C@H](C)[C@H]2N(C/C=C/Cn3cc(-c4cnc(N)s4)nn3)C(=O)O[C@]12C (some centres unmarked) [FSM-100240] | ≤ 0.0312 | > 32 | > 32 | 32 (≈ 37.6 µM) | > 32 | ≤ 0.0312 | 1 (≈ 1.18 µM) | 1 (≈ 1.18 µM) | > 32 | > 32 | 0.25 (≈ 0.294 µM) | ≤ 0.0312 | > 32 | 0.125 | 32 (≈ 37.6 µM) | 32 (≈ 37.6 µM) | > 32 | > 32 | > 32 | 32 (≈ 37.6 µM) | MIC [21]: ≤ 0.0312 µg/mL; MIC [22]: 16 µg/mL (≈ 18.8 µM); MIC [23]: > 32 µg/mL; MIC [24]: > 32 µg/mL; MIC [25]: 1 µg/mL (≈ 1.18 µM); MIC [26]: 8 µg/mL (≈ 9.41 µM); MIC [27]: 4 µg/mL (≈ 4.71 µM); MIC [28]: 0.25 µg/mL (≈ 0.294 µM) |
| CC[C@H]1OC(=O)[C@H](C)C(=O)[C@H](C)[C@@H](O[C@@H]2OC(C)CC(N(C)C)C2O)[C@](C)(OC)C[C@@H](C)C(=O)[C@H](C)[C@H]2N(CC3CC3Cn3cc(-c4cccc(N)c4)nn3)C(=O)O[C@]12C (single isomer, unassigned) [FSM-100428] | < 0.0312 | > 32 | > 32 | 16 (≈ 19.1 µM) | > 32 | < 0.0312 | 4 (≈ 4.77 µM) | 4 (≈ 4.77 µM) | 32 (≈ 38.1 µM) | > 32 | < 0.0312 | < 0.0312 | > 32 | 0.0625 | 32 (≈ 38.1 µM) | 32 (≈ 38.1 µM) | > 32 | > 32 | > 32 | 16 (≈ 19.1 µM) | MIC [21]: < 0.0312 µg/mL; MIC [22]: 16 µg/mL (≈ 19.1 µM); MIC [23]: > 32 µg/mL; MIC [24]: > 32 µg/mL; MIC [25]: 2 µg/mL (≈ 2.38 µM); MIC [26]: > 32 µg/mL; MIC [27]: 16 µg/mL (≈ 19.1 µM); MIC [28]: < 0.0312 µg/mL |

From patent publication US10633407B2, “14-membered ketolides and methods of their preparation and use” (President and Fellows of Harvard College, priority 2014, dated 2020)
